Experimental data published in PubChem BioAssay AID256 (DTP/NCI, 2004).
“And” between values parts separate entries of the source, which are not always exact repeats. Identical values can stand only once. Toxic doses and inconclusive results are not listed.

System: CD2F1 mice, L1210 leukemia ip, survival T/C
Assay: NCI In Vivo Anticancer Drug Screen. Data for tumor model L1210 Leukemia (intraperitoneal) in CD2F1 (CDF1) mice
Conditions: endpoint: mean survival time, higher = longer survival
Summary of the method: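 Implant tumor; dose compound or vehicle; measure endpoint in both groups; report treated divided by control.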

[1] = dose: 100.0 mg/kg/injection, schedule: Q01DX001 (ip), vehicle: saline with Tween-80
[2] = dose: 200.0 mg/kg/injection, schedule: Q01DX001 (ip), vehicle: saline with Tween-80
[3] = dose: 400.0 mg/kg/injection, schedule: Q01DX001 (ip), vehicle: saline with Tween-80
[4] = dose: 100.0 mg/kg/injection, schedule: Q04DX003 (ip), vehicle: saline with Tween-80
[5] = dose: 200.0 mg/kg/injection, schedule: Q04DX003 (ip), vehicle: saline with Tween-80
[6] = dose: 400.0 mg/kg/injection, schedule: Q04DX003 (ip), vehicle: saline with Tween-80
[7] = dose: 100.0 mg/kg/injection, schedule: Q01DX009 (ip), vehicle: saline with Tween-80
[8] = dose: 200.0 mg/kg/injection, schedule: Q01DX009 (ip), vehicle: saline with Tween-80
[9] = dose: 400.0 mg/kg/injection, schedule: Q01DX009 (ip), vehicle: saline with Tween-80
[10] = dose: 25.0 mg/kg/injection, schedule: Q01DX009 (ip), vehicle: saline with Tween-80
[11] = dose: 50.0 mg/kg/injection, schedule: Q01DX009 (ip), vehicle: saline with Tween-80
[12] = dose: 25.0 mg/kg/injection, schedule: Q04DX003 (ip), vehicle: saline with Tween-80
[13] = dose: 25.0 mg/kg/injection, schedule: Q01DX001 (ip), vehicle: saline with Tween-80
[14] = dose: 50.0 mg/kg/injection, schedule: Q01DX001 (ip), vehicle: saline with Tween-80

CC1=CC(C)(C)Nc2ccc(CSc3ccccc3)cc21
T/C (dose: 12.5 mg/kg/injection, schedule: Q01DX009 (ip), vehicle: DMSO): 102 % of control | T/C (dose: 25.0 mg/kg/injection, schedule: Q01DX009 (ip), vehicle: DMSO): 95 % of control | T/C (dose: 25.0 mg/kg/injection, schedule: Q01DX009 (ip), vehicle: other): 97 % of control | T/C (dose: 50.0 mg/kg/injection, schedule: Q01DX009 (ip), vehicle: DMSO): 97 % of control | T/C (dose: 50.0 mg/kg/injection, schedule: Q01DX009 (ip), vehicle: other): 93 % of control | T/C (dose: 100.0 mg/kg/injection, schedule: Q01DX009 (ip), vehicle: other): 96 % of control

CC1(C)OCC(C(O)C(OC(=O)c2ccccc2)C2COC(C)(C)O2)O1 (centres undefined)
T/C [1]: 106 % of control | T/C [2]: 94 % of control | T/C [3]: 105 % of control

OCCNc1ccc(I)cc1
T/C [4]: 105 % of control | T/C [5]: 112 % of control | T/C [6]: 103 % of control

CC(C)(CO)N=Cc1ccccc1F
T/C (dose: 75.0 mg/kg/injection, schedule: Q01DX001 (ip), vehicle: other): 97 % of control | T/C (dose: 150.0 mg/kg/injection, schedule: Q01DX001 (ip), vehicle: other): 96 % of control | T/C (dose: 300.0 mg/kg/injection, schedule: Q01DX001 (ip), vehicle: other): 93 % of control

O=C(O)/C=N/NS(=O)(=O)c1ccc(Cl)cc1
T/C (dose: 12.5 mg/kg/injection, schedule: Q04DX003 (ip), vehicle: other): 97 % of control | T/C (dose: 25.0 mg/kg/injection, schedule: Q04DX003 (ip), vehicle: other): 105 % of control | T/C (dose: 50.0 mg/kg/injection, schedule: Q04DX003 (ip), vehicle: other): 118 % of control and 122 % of control | T/C (dose: 200.0 mg/kg/injection, schedule: Q04DX003 (ip), vehicle: other): 174 % of control

N#CC(CN1CCOCC1)[N+](=O)[O-] (centres undefined)
T/C [7]: 95 % of control | T/C [8]: 100 % of control | T/C [9]: 118 % of control

CCN(CC)CCNC1CCCCC1
T/C [10]: 96 % of control | T/C (dose: 25.0 mg/kg/injection, schedule: Q04DX003 (ip), vehicle: saline): 97 % of control | T/C [11]: 96 % of control | T/C (dose: 50.0 mg/kg/injection, schedule: Q04DX003 (ip), vehicle: saline): 100 % of control | T/C [7]: 96 % of control | T/C (dose: 100.0 mg/kg/injection, schedule: Q04DX003 (ip), vehicle: saline): 94 % of control

O=C(NC(=S)Nc1cccc(O)c1)c1cccc(Br)c1
T/C [7]: 96 % of control | T/C [8]: 96 % of control | T/C [9]: 97 % of control

O=C(Oc1ccccc1)C(O)CO (centres undefined)
T/C [1]: 104 % of control | T/C [2]: 101 % of control | T/C [3]: 97 % of control

CC(C)c1cc(C(C)C)nc(NNc2nc(C(C)C)cc(C(C)C)n2)n1
T/C [4]: 102 % of control | T/C [5]: 100 % of control | T/C [6]: 100 % of control

COC(=O)/C(C#N)=C\c1ccccc1
T/C [11]: 95 % of control | T/C [7]: 95 % of control | T/C [8]: 92 % of control

OCCNC(=S)Nc1ccccc1
T/C (dose: 7.5 mg/kg/injection, schedule: Q01DX009 (ip), vehicle: saline): 97 % of control | T/C (dose: 15.0 mg/kg/injection, schedule: Q01DX009 (ip), vehicle: saline): 95 % of control | T/C [12]: 98 % of control | T/C (dose: 30.0 mg/kg/injection, schedule: Q01DX009 (ip), vehicle: saline): 89 % of control | T/C (dose: 50.0 mg/kg/injection, schedule: Q04DX003 (ip), vehicle: saline with Tween-80): 101 % of control | T/C [4]: 100 % of control

CC(C)(C)N1CC(C(O)(c2ccccc2)c2ccccc2)C1
T/C [13]: 101 % of control | T/C [14]: 101 % of control

CC[As](=O)(O)c1ccc([N+](=O)[O-])cc1
T/C [13]: 98 % of control | T/C [14]: 96 % of control

COc1ccc([I+]c2ccccc2)cc1
T/C (dose: 2.5 mg/kg/injection, schedule: Q01DX009 (ip), vehicle: saline sonified): 102 % of control | T/C (dose: 2.5 mg/kg/injection, schedule: Q04DX003 (ip), vehicle: saline with Tween-80): 106 % of control | T/C (dose: 5.0 mg/kg/injection, schedule: Q01DX009 (ip), vehicle: saline sonified): 106 % of control | T/C (dose: 5.0 mg/kg/injection, schedule: Q04DX003 (ip), vehicle: saline with Tween-80): 98 % of control | T/C (dose: 6.25 mg/kg/injection, schedule: Q01DX009 (ip), vehicle: saline with Tween-80): 95 % of control | T/C (dose: 6.25 mg/kg/injection, schedule: Q04DX003 (ip), vehicle: saline with Tween-80): 93 % of control | T/C (dose: 10.0 mg/kg/injection, schedule: Q01DX009 (ip), vehicle: saline sonified): 95 % of control | T/C (dose: 10.0 mg/kg/injection, schedule: Q04DX003 (ip), vehicle: saline with Tween-80): 104 % of control | T/C (dose: 12.5 mg/kg/injection, schedule: Q01DX009 (ip), vehicle: saline with Tween-80): 118 % of control | T/C (dose: 12.5 mg/kg/injection, schedule: Q04DX003 (ip), vehicle: saline with Tween-80): 92 % of control | T/C [10]: 120 % of control | T/C [12]: 104 % of control

O=c1n(-c2ccccc2)c(=O)n(-c2ccccc2)c(=O)n1-c1ccccc1
T/C (dose: 100.0 mg/kg/injection, schedule: Q01DX001 (ip), vehicle: Klucel (hydroxypropylcellulose) (HPC)): 93 % of control | T/C (dose: 200.0 mg/kg/injection, schedule: Q01DX001 (ip), vehicle: Klucel (hydroxypropylcellulose) (HPC)): 90 % of control | T/C (dose: 400.0 mg/kg/injection, schedule: Q01DX001 (ip), vehicle: Klucel (hydroxypropylcellulose) (HPC)): 101 % of control

CCOC(=O)c1c(NC(C)=O)sc2c1CCCC2
T/C [4]: 97 % of control | T/C [5]: 106 % of control

CCCCNC(=O)CCC(=O)O
T/C [7]: 109 % of control | T/C [4]: 99 % of control | T/C [8]: 94 % of control | T/C [5]: 99 % of control | T/C [9]: 96 % of control | T/C [6]: 95 % of control

C=CCC1(C)C(=O)CCC2=C1CCc1c(OC)cccc12 (centres undefined)
T/C (dose: 100.0 mg/kg/injection, schedule: Q01DX001 (ip), vehicle: saline): 90 % of control | T/C (dose: 200.0 mg/kg/injection, schedule: Q01DX001 (ip), vehicle: saline): 90 % of control | T/C (dose: 400.0 mg/kg/injection, schedule: Q01DX001 (ip), vehicle: saline): 92 % of control

O=NN(CCCl)C(=O)NC1CCCN(Cc2ccccc2)C1 (centres undefined)
T/C (dose: 6.25 mg/kg/injection, schedule: Q01DX001 (ip), vehicle: saline with Tween-80): 106 % of control | T/C (dose: 12.5 mg/kg/injection, schedule: Q01DX001 (ip), vehicle: saline with Tween-80): 115 % of control | T/C [14]: 168 % of control | T/C [1]: 340 % of control

O=C(Nc1ccc(Cl)c(Cl)c1)c1ccc(Cl)c(Cl)c1
T/C (dose: 100.0 mg/kg/injection, schedule: Q04DX002 (ip), vehicle: saline with Tween-80): 95 % of control | T/C (dose: 400.0 mg/kg/injection, schedule: Q04DX002 (ip), vehicle: saline with Tween-80): 91 % of control

CC([NH-])C(C)[NH-].[Cl][Pt+2][Cl] (centres undefined)
T/C (dose: 1.56 mg/kg/injection, schedule: Q04DX002 (ip), vehicle: Klucel (hydroxypropylcellulose) (HPC)): 113 % of control | T/C (dose: 3.12 mg/kg/injection, schedule: Q04DX002 (ip), vehicle: Klucel (hydroxypropylcellulose) (HPC)): 120 % of control | T/C (dose: 12.5 mg/kg/injection, schedule: Q04DX002 (ip), vehicle: Klucel (hydroxypropylcellulose) (HPC)): 166 % of control | T/C (dose: 25.0 mg/kg/injection, schedule: Q04DX002 (ip), vehicle: Klucel (hydroxypropylcellulose) (HPC)): 118 % of control and 120 % of control | T/C (dose: 50.0 mg/kg/injection, schedule: Q04DX002 (ip), vehicle: Klucel (hydroxypropylcellulose) (HPC)): 89 % of control

O=C1c2cccc(O)c2C(=O)c2c(O)cc(CO)cc21
T/C (dose: 1.25 mg/kg/injection, schedule: Q01DX009 (ip), vehicle: other): 96 % of control | T/C (dose: 2.5 mg/kg/injection, schedule: Q01DX009 (ip), vehicle: other): 102 % of control | T/C (dose: 5.0 mg/kg/injection, schedule: Q01DX009 (ip), vehicle: other): 96 % of control | T/C (dose: 10.0 mg/kg/injection, schedule: Q01DX009 (ip), vehicle: other): 102 % of control

CC(C)NC1=C(NC(=O)NC(=O)c2ccccc2)C(=O)c2ccccc2C1=O
T/C (dose: 100.0 mg/kg/injection, schedule: Q01DX001 (ip), vehicle: other): 100 % of control | T/C (dose: 200.0 mg/kg/injection, schedule: Q01DX001 (ip), vehicle: other): 103 % of control | T/C (dose: 400.0 mg/kg/injection, schedule: Q01DX001 (ip), vehicle: other): 106 % of control
